# Experimental data as given in the supplement of paper PMC10307832.
# Assays:
# Assay in all cases: relative viability (nuclei count vs DMSO), 5 days (fraction); higher = more cells survive
# [1] = compound: C1/C(=C\C2=CC=CS2)/C(=O)/C(=C/C3=CC=CS3)/C1
# Procedure, shortened: (§1)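 Five library-drug doses spaced by √10 were pinned onto vehicle-anchored 1536-well plates of lung cancer cell lines that had been kept overnight at 37 °C. Cells went 5 days without medium change, then were fixed, permeabilised and Hoechst-stained together, imaged at 4× and counted by MetaXpress. Viability is the ratio of treated-well to vehicle-well nuclei, taken as a median over plates. Plates required control CV below 25% and at least one doubling.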
# [2] = compound: C1=CC(=CC=C1C2=CC(=C(S2)NC(=O)N)C(=O)N)F [TPCA-1]
# Procedure, shortened: as §1
# [3] = compound: C[C@]12O[C@H](C[C@]1(O)CO)n1c3ccccc3c3c4c(c5c6ccccc6n2c5c31)CNC4=O [Lestaurtinib]
# Procedure, shortened: as §1
# [4] = compound: C1=CC(=CC=C1C2=CC(=C(S2)NC(=O)N)C(=O)N)F [TPCA-1] + C[C@@H](Oc1cc(-c2cnn(C3CCNCC3)c2)cnc1N)c1c(Cl)ccc(F)c1Cl [Crizotinib] (partner 1 µM)
# Procedure, shortened: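 Lung cancer cell lines in 1536-well plates got either a single drug or a fixed anchor-drug dose together with five library-drug doses (not always all listed) in √10 steps, by pin tool, on the day after seeding. Nuclei were counted after 5 days, and relative viability is the treated-to-vehicle ratio of nuclei counts. Values are medians of duplicate plates.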
cell line,measurement,setting,value
NCI-H1915,relative viability,[1]; 0.2 µM,1.02
same,relative viability,[1]; 0.6325 µM,1.04
same,relative viability,[1]; 2 µM,0.99
same,relative viability,[1]; 6.325 µM,0.93
same,relative viability,[1]; 20 µM,0.97
same,relative viability,[2]; 0.04 µM,1.1
same,relative viability,[2]; 0.1265 µM,0.984
same,relative viability,[2]; 0.4 µM,1.05
same,relative viability,[2]; 1.265 µM,0.896
same,relative viability,[2]; 4 µM,0.608
same,relative viability,[3]; 0.005 µM,1.01
same,relative viability,[3]; 0.01581 µM,1.05
same,relative viability,[3]; 0.05 µM,0.927
same,relative viability,[3]; 0.1581 µM,0.642
same,relative viability,[3]; 0.5 µM,0.344
same,relative viability,[4]; first compound 0.04 µM,0.906
same,relative viability,[4]; first compound 0.1265 µM,0.884
same,relative viability,[4]; first compound 0.4 µM,0.915
same,relative viability,[4]; first compound 1.265 µM,0.857
same,relative viability,[4]; first compound 4 µM,0.72
NCI-H1944,relative viability,[1]; 0.2 µM,1.04
same,relative viability,[1]; 0.6325 µM,0.922
same,relative viability,[1]; 2 µM,0.977
same,relative viability,[1]; 6.325 µM,0.858
same,relative viability,[1]; 20 µM,0.917
same,relative viability,[2]; 0.04 µM,1.15
same,relative viability,[2]; 0.1265 µM,0.88
same,relative viability,[2]; 0.4 µM,1.07
same,relative viability,[2]; 1.265 µM,0.998
same,relative viability,[2]; 4 µM,0.715
same,relative viability,[3]; 0.005 µM,0.888
same,relative viability,[3]; 0.01581 µM,0.972
same,relative viability,[3]; 0.05 µM,0.968
same,relative viability,[3]; 0.1581 µM,0.655
same,relative viability,[3]; 0.5 µM,0.396
same,relative viability,[4]; first compound 0.04 µM,1.18
same,relative viability,[4]; first compound 0.1265 µM,1.03
same,relative viability,[4]; first compound 0.4 µM,1.02
same,relative viability,[4]; first compound 1.265 µM,1.02
same,relative viability,[4]; first compound 4 µM,0.682
NCI-H1975,relative viability,[1]; 0.2 µM,0.99
same,relative viability,[1]; 0.6325 µM,0.891
same,relative viability,[1]; 2 µM,0.886
same,relative viability,[1]; 6.325 µM,0.838
same,relative viability,[1]; 20 µM,0.969
same,relative viability,[2]; 0.04 µM,0.974
same,relative viability,[2]; 0.1265 µM,0.887
same,relative viability,[2]; 0.4 µM,0.932
same,relative viability,[2]; 1.265 µM,0.87
same,relative viability,[2]; 4 µM,0.576
same,relative viability,[3]; 0.005 µM,1.04
same,relative viability,[3]; 0.01581 µM,1.03
same,relative viability,[3]; 0.05 µM,0.829
same,relative viability,[3]; 0.1581 µM,0.774
same,relative viability,[3]; 0.5 µM,0.649
same,relative viability,[4]; first compound 0.04 µM,0.985
same,relative viability,[4]; first compound 0.1265 µM,0.863
same,relative viability,[4]; first compound 0.4 µM,0.972
same,relative viability,[4]; first compound 1.265 µM,0.939
same,relative viability,[4]; first compound 4 µM,0.691
NCI-H1993,relative viability,[1]; 0.2 µM,1.04
same,relative viability,[1]; 0.6325 µM,0.898
same,relative viability,[1]; 2 µM,1.05
same,relative viability,[1]; 6.325 µM,0.786
same,relative viability,[1]; 20 µM,0.861
same,relative viability,[2]; 0.04 µM,0.985
same,relative viability,[2]; 0.1265 µM,0.805
same,relative viability,[2]; 0.4 µM,0.94
same,relative viability,[2]; 1.265 µM,1.06
same,relative viability,[2]; 4 µM,0.722
same,relative viability,[3]; 0.005 µM,1.02
same,relative viability,[3]; 0.01581 µM,0.949
same,relative viability,[3]; 0.05 µM,0.824
same,relative viability,[3]; 0.1581 µM,0.709
same,relative viability,[3]; 0.5 µM,0.567
same,relative viability,[4]; first compound 0.04 µM,0.868
same,relative viability,[4]; first compound 0.4 µM,1.02
same,relative viability,[4]; first compound 1.265 µM,0.851
same,relative viability,[4]; first compound 4 µM,0.849
NCI-H2009,relative viability,[1]; 0.2 µM,1.03
same,relative viability,[1]; 0.6325 µM,0.98
same,relative viability,[1]; 2 µM,0.972
same,relative viability,[1]; 6.325 µM,0.936
same,relative viability,[1]; 20 µM,0.994
same,relative viability,[2]; 0.04 µM,1.12
same,relative viability,[2]; 0.1265 µM,1
same,relative viability,[2]; 0.4 µM,1.01
same,relative viability,[2]; 1.265 µM,0.859
same,relative viability,[2]; 4 µM,0.834
same,relative viability,[3]; 0.005 µM,0.999
same,relative viability,[3]; 0.01581 µM,1.04
same,relative viability,[3]; 0.05 µM,0.82
same,relative viability,[3]; 0.1581 µM,0.762
same,relative viability,[3]; 0.5 µM,0.366
same,relative viability,[4]; first compound 0.04 µM,1.06
same,relative viability,[4]; first compound 0.1265 µM,1.05
same,relative viability,[4]; first compound 0.4 µM,1.03
same,relative viability,[4]; first compound 1.265 µM,1.05
same,relative viability,[4]; first compound 4 µM,0.891
NCI-H2023,relative viability,[1]; 0.2 µM,1
same,relative viability,[1]; 0.6325 µM,1.04
same,relative viability,[1]; 2 µM,1.07
same,relative viability,[1]; 6.325 µM,0.827
same,relative viability,[1]; 20 µM,0.837
same,relative viability,[2]; 0.04 µM,1.16
same,relative viability,[2]; 0.1265 µM,0.946
same,relative viability,[2]; 0.4 µM,1.13
same,relative viability,[2]; 1.265 µM,0.85
same,relative viability,[2]; 4 µM,0.509
same,relative viability,[3]; 0.005 µM,1.02
same,relative viability,[3]; 0.01581 µM,0.978
same,relative viability,[3]; 0.05 µM,0.874
same,relative viability,[3]; 0.1581 µM,0.746
same,relative viability,[3]; 0.5 µM,0.201
same,relative viability,[4]; first compound 0.04 µM,0.75
same,relative viability,[4]; first compound 0.1265 µM,0.667
same,relative viability,[4]; first compound 0.4 µM,0.658
same,relative viability,[4]; first compound 1.265 µM,0.636
same,relative viability,[4]; first compound 4 µM,0.512
NCI-H2085,relative viability,[1]; 0.2 µM,1.08
same,relative viability,[1]; 0.6325 µM,1.01
same,relative viability,[1]; 2 µM,1.01
same,relative viability,[1]; 6.325 µM,0.898
same,relative viability,[1]; 20 µM,0.961
same,relative viability,[2]; 0.04 µM,0.989
same,relative viability,[2]; 0.1265 µM,0.989
same,relative viability,[2]; 0.4 µM,0.988
same,relative viability,[2]; 1.265 µM,0.897
same,relative viability,[2]; 4 µM,0.875
same,relative viability,[3]; 0.005 µM,0.989
same,relative viability,[3]; 0.01581 µM,0.99
same,relative viability,[3]; 0.05 µM,0.996
same,relative viability,[3]; 0.1581 µM,1.01
same,relative viability,[3]; 0.5 µM,0.786
same,relative viability,[4]; first compound 0.04 µM,0.921
same,relative viability,[4]; first compound 0.1265 µM,0.793
same,relative viability,[4]; first compound 0.4 µM,0.872
same,relative viability,[4]; first compound 1.265 µM,0.765
same,relative viability,[4]; first compound 4 µM,0.78
NCI-H2087,relative viability,[1]; 0.2 µM,1.13
same,relative viability,[1]; 0.6325 µM,0.872
same,relative viability,[1]; 2 µM,1.2
same,relative viability,[1]; 6.325 µM,0.783
same,relative viability,[1]; 20 µM,1.01
same,relative viability,[2]; 0.04 µM,1.18
same,relative viability,[2]; 0.1265 µM,0.966
same,relative viability,[2]; 0.4 µM,0.982
same,relative viability,[2]; 1.265 µM,0.915
same,relative viability,[2]; 4 µM,0.542
same,relative viability,[3]; 0.005 µM,1.03
same,relative viability,[3]; 0.01581 µM,0.951
same,relative viability,[3]; 0.05 µM,0.816
same,relative viability,[3]; 0.1581 µM,0.834
same,relative viability,[3]; 0.5 µM,0.367
same,relative viability,[4]; first compound 0.04 µM,0.801
same,relative viability,[4]; first compound 0.1265 µM,0.828
same,relative viability,[4]; first compound 0.4 µM,0.781
same,relative viability,[4]; first compound 1.265 µM,0.867
same,relative viability,[4]; first compound 4 µM,0.283
NCI-H2126,relative viability,[1]; 0.2 µM,1.03
same,relative viability,[1]; 0.6325 µM,1.01
same,relative viability,[1]; 2 µM,1.07
same,relative viability,[1]; 6.325 µM,0.896
same,relative viability,[1]; 20 µM,0.979
same,relative viability,[2]; 0.04 µM,0.997
same,relative viability,[2]; 0.1265 µM,0.918
same,relative viability,[2]; 0.4 µM,1.01
same,relative viability,[2]; 1.265 µM,0.89
same,relative viability,[2]; 4 µM,0.809
same,relative viability,[3]; 0.005 µM,1.02
same,relative viability,[3]; 0.01581 µM,1.1
same,relative viability,[3]; 0.05 µM,0.891
same,relative viability,[3]; 0.1581 µM,0.842
same,relative viability,[3]; 0.5 µM,0.729
same,relative viability,[4]; first compound 0.04 µM,1.08
same,relative viability,[4]; first compound 0.1265 µM,0.93
same,relative viability,[4]; first compound 0.4 µM,1.07
same,relative viability,[4]; first compound 1.265 µM,0.945
same,relative viability,[4]; first compound 4 µM,0.951
NCI-H2170,relative viability,[1]; 0.2 µM,1
same,relative viability,[1]; 0.6325 µM,0.942
same,relative viability,[1]; 2 µM,0.991
same,relative viability,[1]; 6.325 µM,0.881
same,relative viability,[1]; 20 µM,0.924
same,relative viability,[2]; 0.04 µM,1.19
same,relative viability,[2]; 0.1265 µM,0.959
same,relative viability,[2]; 0.4 µM,0.98
same,relative viability,[2]; 1.265 µM,0.895
same,relative viability,[2]; 4 µM,0.674
same,relative viability,[3]; 0.005 µM,0.959
same,relative viability,[3]; 0.01581 µM,0.832
same,relative viability,[3]; 0.05 µM,0.689
same,relative viability,[3]; 0.1581 µM,0.807
same,relative viability,[3]; 0.5 µM,0.494
same,relative viability,[4]; first compound 0.04 µM,1.33
same,relative viability,[4]; first compound 0.1265 µM,1.15
same,relative viability,[4]; first compound 0.4 µM,1.16
same,relative viability,[4]; first compound 1.265 µM,1.13
same,relative viability,[4]; first compound 4 µM,0.583
